Source: US9511120B2, “Use of the angiotensin-(1-9) peptide or derivatives thereof, use of vectors overexpressing the ACE2 enzyme that produces angiotensin-(1-9) for preparing medicaments useful for preventing, reverting, inhibiting and/or reducing hypertension and/or inducing vasodilation” (PONTIFICA UNIVERSIDAD CATÓLICA DE CHILE, priority 2012, dated 2016)
Where no end group is shown, it is not given here.

Assays:
[1] = tested on: hypertensive rats by administration of angiotensin II; assay: Hypertension induced by angiotensin II infusion: body mass, cardiac mass, systolic blood pressure; format: in vivo, rat
Experimental: Rats were subjected to the model of angiotensin II infusion (Grobe et al.: Am. J. Physiol. 292: H736-42, 2007). The animals were separated randomly into the following experimental groups: controls (Sham or pseudo-operated), infused with angiotensin II (300 ng/kg min), infused with angiotensin II and angiotensin-(1-9) (300 ng/kg min and 602 ng/kg min, respectively), and then infused with angiotensin II, angiotensin-(1-9) and the angiotensin-(1-7) receptor antagonist, A779 (300 ng/kg min, 602 ng/kg min, and 100 ng/kg min, respectively). In all cases the pumps operated at a flow of 0.5 μL/h and were implanted in the right jugular vein through a catheter fitted in an intrascapular subcutaneous pocket under anesthesia with ketamine HCl/xylazine (35 and 7 mg/kg i.p., respectively), for a period of 14 days.
(§1) Systolic blood pressure (SBP) was measured by the tail plethysmographic method in the animals. To such end, rats were lightly anesthetized with ethyl ether. The measurement was performed once a week by researchers blind to the treatment (Ocaranza et al. J. Hypertens. 20:413-20, 2002).
(§2) The degree of cardiac hypertrophy (CH) was measured by the ratio of the cardiac mass (CM), the body mass (BM) and relative cardiac mass (RCM; [CM/BM]*100) (Ocaranza et al., J. Hypertens. 28:1054-1064, 2010).
Four experimental groups of rats were established as described in Example 1. Group 1 corresponds to rats which were infused with saline (Sham). Group 2 corresponds to rats which were infused with only angiotensin II. Group 3 correspond to rats which were co-infused with angiotensin II and angiotensin-(1-9). And Group 4 corresponds to rats which were co-infused with angiotensin II, angiotensin-(1-9) and A779.

[2] = tested on: hypertensive rats by clamping the renal artery (Goldblatt model); assay: Goldblatt model (GB, 2 kidneys, 1 clip): body weight, cardiac mass, systolic blood pressure; format: in vivo, rat
From the text: Lewis normotensive rats (weight 150±10 g), which were separated randomly into the experimental hypertension model group or GB (Ocaranza et al. J. Hypertens. 20:413-20, 2002) or control group (S) were used. The latter corresponded to pseudo-operated animals. All animals were maintained under controlled conditions of light and darkness and had free access to food and water. Four weeks after surgery and at a blood pressure above 140 mmHg, GB rats were randomized for the chronic administration of angiotensin-(1-9) through an osmotic pump (602 ng kg^−1min^−1) via the jugular vein during two weeks. The animals were euthanized after 6 weeks post-surgery.
as §1, §2

Sequence: DRVYIHPFH
- SBP 1st week ([1]; 1st week of infusion): 141 ± 9 mmHg
- SBP 2nd week ([1]; 2nd week of infusion): 139 ± 11 mmHg
- Initial SBP ([1]; baseline, tail plethysmography): 123 ± 11 mmHg
- decrease of SBP as compared to angiotensin II ([1]; co-administration with angiotensin II): 10%
- CM ([1]; rats, infusion for 14 days): 984 ± 26 mg
- RCM (MV/MC) ([1]; rats, infusion for 14 days): 386 ± 36
- decrease of systolic blood pressure ([2]; GB rats, from week 1 after the administration, maintained 2 weeks): 15%
- CM ([2]; GB rats, two weeks treatment): 0.37 ± 0.02 ^ g
- RCM ([2]; GB rats, two weeks treatment): 0.84 ± 0.04 mg/g
- RCM ([2]; hypertensive rats vs. 400±1 in GB, not statistically significant): 380±2
- BW (as printed in text) ([2]; rats with HTN vs. untreated GB animals 0.93±0.04): 0.84 ± 0.03 g
